Reference: patent EP1581477B1, “CYCLOALKENE DICARBOXYLIC ACID COMPOUNDS AS ANTI-INFLAMMATORY, IMMUNOMODULATORY AND ANTI-PROLIFERATORY AGENTS” (4SC AG, priority 2002, dated 2004)

Target: T1, human DHODH (Homo sapiens, UniProt Q02127)
T1 construct: Prof; M. Löffler, Marburg, Germany (gift)
Assay: Inhibition assay of DHODH activity (spectrophotometric, 2,6-dichloroindophenol reduction)
Assay type: biochemical
Conditions: recombinant human DHODH; 50 mM TrisHCl, pH 8,0, 30°C; absorption at 600 nm
Method: 3. Inhibition Assay of DHODH activity
The standard assay mixture contained 50 µM decyclo ubichinone, 100 µM dihydroorotate, 60 µM 2,6-dichloroindophenol, as well as 20 mU DHODH The volume activity of the recombinant enzyme used was 30 U/ml. Measurements were conducted in 50 mM TrisHCl (150 mM KCI, 0,1% Triton X-100, pH 8,0) at 30°C in a final volume of 1 ml. The components were mixed, and the reaction was started by adding dihydroorotate. The course of reaction was followed by spectrophotometrically measuring the decrease in absorption at 600 nm for 2 min.
Inhibitory studies were conducted in a standard assay with additional variable amounts of inhibitor.
These investigations were carried out with recombinant human as well as with recombinant murine DHODH provided by Prof. M. Löffler, Marburg, Germany [M. Löffler, Chem. Biol. Interact. 124, (2000), 61-76].

T1 sequence (Q02127 whole entry): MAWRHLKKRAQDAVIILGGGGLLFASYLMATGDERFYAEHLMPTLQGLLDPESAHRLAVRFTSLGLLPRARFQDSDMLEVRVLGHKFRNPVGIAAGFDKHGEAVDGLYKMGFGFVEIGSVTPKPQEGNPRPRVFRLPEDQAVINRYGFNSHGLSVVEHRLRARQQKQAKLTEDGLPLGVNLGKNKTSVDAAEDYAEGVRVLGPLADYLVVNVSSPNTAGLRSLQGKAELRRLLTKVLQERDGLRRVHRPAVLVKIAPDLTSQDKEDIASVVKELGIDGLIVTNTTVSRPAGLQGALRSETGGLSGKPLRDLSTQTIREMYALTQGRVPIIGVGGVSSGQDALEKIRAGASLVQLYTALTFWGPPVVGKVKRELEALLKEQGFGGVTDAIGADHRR

`CCOc1cccc(-c2cc(F)c(NC(=O)C3=C(C(=O)O)CCC3O)c(F)c2)c1` (stereo not drawn) [Example 7, 2-(3'-Ethoxy-3,5-difluoro-biphenyl-4-ylcarbamoyl)-3-hydroxy-cyclopent-1-enecarboxylic acid] and `O=C(O)C1=C(C(=O)Nc2c(F)cc(-c3ccccc3F)cc2F)C(O)CC1` (stereo not drawn) [Example 11, 3-Hydroxy-2-(3,5,2'-trifluoro-biphenyl-4-ylcarbamoyl)-cyclopent-1-enecarboxylic acid] cannot be ordered by IC50: less than 1000 nM for the first, less than 1000 nM for the second.

`CCOc1cccc(-c2cc(F)c(NC(=O)C3=C(C(=O)O)C(O)CC3)c(F)c2)c1` (stereo not drawn) [Example 8, 2-(3'-Ethoxy-3,5-difluoro-biphenyl-4-ylcarbamoyl)-5-hydroxy-cyclopent-1-enecarboxylic acid] and `COc1ccccc1-c1ccc(NC(=O)C2=C(C(=O)O)CCC2O)cc1Cl` (stereo not drawn) [Example 13, 2-(2-Chloro-2'-methoxy-biphenyl-4-ylcarbamoyl)-3-hydroxy-cyclopent-1-enecarboxylic acid] cannot be ordered by IC50: less than 1000 nM for the first, less than 1000 nM for the second.

Compared with `O=C(O)C1=C(C(=O)Nc2c(F)c(F)c(-c3cccc(OC(F)(F)F)c3)c(F)c2F)C(O)CC1` (stereo not drawn) [Example 5, 3-Hydroxy-2-(2,3,5,6-tetrafluoro-3'-trifluoromethoxy-biphenyl-4-ylcarbamoyl)-cyclopent-1-enecarboxylic acid], `COc1cccc(-c2ccc(NC(=O)C3=C(C(=O)O)CCC3C(=O)O)c(F)c2)c1` (stereo not drawn) [Example 2, 2-(3-Fluoro-3'-methoxy-biphenyl-4-ylcarbamoyl)-cyclopent-1-ene-1,3-dicarboxylic acid] is higher in IC50: less than 1000 nM for the first, greater than 5000 nM for the second.

Compared with `COc1cccc(-c2ccc(NC(=O)C3=C(C(=O)O)C(C(=O)O)CC3)c(F)c2)c1` (stereo not drawn) [Example 1, 3-(3-Fluoro-3'-methoxy-biphenyl-4-ylcarbamoyl)-cyclopent-2-ene-1,2-dicarboxylic acid], `O=C(O)C1=C(C(=O)Nc2c(F)c(F)c(-c3cccc(OC(F)(F)F)c3)c(F)c2F)CCC1O` (stereo not drawn) [Example 6, 5-Hydroxy-2-(2,3,5,6-tetrafluoro-3'-trifluoromethoxy-biphenyl-4-ylcarbamoyl)-cyclopent-1-enecarboxylic acid] is lower in IC50: greater than 5000 nM for the first, less than 1000 nM for the second. The second is the more potent here.

Compared with `COc1cccc(-c2ccc(NC(=O)C3=C(C(=O)O)CCC3O)c(F)c2)c1` (stereo not drawn) [Example 17, 2-(3-Fluoro-3'-methoxy-biphenyl-4-ylcarbamoyl)-3-hydroxy-cyclopent-1-enecarboxylic acid], `COC(=O)C1=C(C(=O)Nc2ccc(-c3cccc(OC)c3)cc2F)CCC1` [Example 3, 2-(3-Fluoro-3'-methoxy-biphenyl-4-ylcarbamoyl)-cyclopent-1-enecarboxylic acid methyl ester] is higher in IC50: less than 1000 nM for the first, greater than 5000 nM for the second.

“2-(1',3'di-methoxy-3,5-difluoro-biphenyl-4-ylcarbamoyl)-5-hydroxy-cyclopent-1-enecarboxylic acid [Example 10]” and `O=C(O)C1=C(C(=O)Nc2c(F)cc(-c3ccccc3Cl)cc2F)CCC1O` (stereo not drawn) [Example 16, 2-(2'-Chloro-3,5-difluoro-biphenyl-4-ylcarbamoyl)-5-hydroxy-cyclopent-1-enecarboxylic acid] cannot be ordered by IC50: less than 5000 nM for the first, less than 1000 nM for the second.

“2-(1',3'di-methoxy-3,5-difluoro-biphenyl-4-ylcarbamoyl)-3-hydroxy-cyclopent-1-enecarboxylic acid [Example 9]” and `O=C(O)C1=C(C(=O)Nc2c(F)cc(-c3ccccc3Cl)cc2F)C(O)CC1` (stereo not drawn) [Example 15, 2-(2'-Chloro-3,5-difluoro-biphenyl-4-ylcarbamoyl)-3-hydroxy-cyclopent-1-enecarboxylic acid] cannot be ordered by IC50: less than 5000 nM for the first, less than 1000 nM for the second.

`COc1ccccc1-c1ccc(NC(=O)C2=C(C(=O)O)C(O)CC2)cc1Cl` (stereo not drawn) [Example 14, 2-(2-Chloro-2'-methoxy-biphenyl-4-ylcarbamoyl)-5-hydroxy-cyclopent-1-enecarboxylic acid] was tested, and the IC50 was less than 1000 nM.
